Consider 31 compounds from patent US9079866B2, “Flap modulators” (JANSSEN PHARMACEUTICA NV, priority 2013, dated 2015).

Where a name gives a salt, the structure may show the parent alone. Read-outs that look alike come from different tables or passages of the source.

Broadly, the Ki is a measure of affinity in units of concentration, obtained from inhibition or displacement. Broadly, the IC50 is the point on the concentration scale where inhibition reaches its midpoint.

The target in one assay is human FLAP (Homo sapiens (Human), UniProt P20292). The assay is described as follows: FLAP binding assay (HTRF format). The procedure, abridged: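 Reported data take the mean of two different plates carrying duplicate samples and use the HTRF ratio as the measured signal.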
Chain of human FLAP (P20292 whole entry): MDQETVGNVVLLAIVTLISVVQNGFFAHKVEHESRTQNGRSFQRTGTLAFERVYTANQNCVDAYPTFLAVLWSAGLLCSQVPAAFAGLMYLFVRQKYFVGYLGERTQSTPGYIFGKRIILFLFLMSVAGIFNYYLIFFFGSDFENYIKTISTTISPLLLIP
In general terms: Time-resolved FRET reads energy transfer from a long-lived donor to a nearby acceptor.

Assay [1] deals with leukotriene pathway in human whole blood (LTB4 levels). As to the kind of experiment: Human whole blood assay (A23187-stimulated LTB4). Format: cell-based. The settings on record: read-out: LTB4 IC50 1:1. The procedure, abridged:
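Heparinised human whole blood diluted 1:1 in RPMI, pre-incubated 15 min at 37° Celsius with compound, then stimulated with A23187 (7 μg/mL) for 30 min at 37° Celsius. Plasma LTB4 measured by immunoassay kit; IC50 from 4-parameter fit; single replicate per plate, at least one healthy donor.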

Where [2] appears, read: human FLAP wild type, HTRF format, average of two plates, duplicates.
Setting [3] is: Homo sapiens, human whole blood diluted 1:1 in RPMI, A23187-stimulated LTB4.
The mark [4] stands for this setting: Homo sapiens, human whole blood diluted 1:1, A23187-stimulated.

On to `O=S(=O)(NCCO)c1ccccc1-c1ccc(-c2cnc3[nH]ccc3c2)c(F)c1` [Example 366, 3′-Fluoro-N-(2-hydroxyethyl)-4′-(1H-pyrrolo[2,3-b]pyridin-5-yl)biphenyl-2-sulfonamide], for which the inhibitory constant (Ki) at human FLAP (setting [2]) stood at 1 nM. In addition, in assay [1] (setting [3]), the IC50 came to 40 nM.
Turning to `Nc1cnc(-c2ccc(-c3ccccc3Oc3cc(N4CCC4)ncn3)cc2F)cn1` [Example 539, 5-{2′-[(6-Azetidin-1-ylpyrimidin-4-yl)oxy]-3-fluorobiphenyl-4-yl}pyrazin-2-amine], the affinity on human FLAP (wild type FLAP, HTRF format), expressed as Ki, was 2 nM. For the same compound, the IC50 in assay [1] (setting [4]) stood at 52 nM.
At human FLAP (wild type FLAP, HTRF format), `Nc1ncc(-c2ccc(-c3cccnc3S(=O)(=O)CC3CCOCC3)cc2F)cn1` [Example 823, 5-(2-Fluoro-4-(2-(((tetrahydro-2H-pyran-4-yl)methyl)sulfonyl)pyridine-3-yl)pyrimidin-2-amine formic acid salt] registered a Ki of 192 nM. Moreover, the IC50 in assay [1] (setting [4]) turned out to be 95.1 nM.
As for `CCS(=O)(=O)Nc1ccccc1-c1ccc(-c2cnc(N)cn2)c(F)c1` [Example 35, N-[4′-(5-Aminopyrazin-2-yl)-3′-fluorobiphenyl-2-yl]ethanesulfonamide], the affinity at human FLAP (setting [2]), expressed as Ki, was 36 nM. In assay [1] (setting [3]), the IC50 is 94 nM.
With `CNS(=O)(=O)c1ccccc1-c1ccc(-c2cnc(N)cn2)c(F)c1` [Example 15, 4′-(5-Aminopyrazin-2-yl)-3′-fluoro-N-methylbiphenyl-2-sulfonamide], at human FLAP (setting [2]), the Ki amounted to 10 nM. Also, in assay [1] (setting [3]), the IC50 is 59 nM.
As to `Nc1cnc(-c2ccc(-c3ccccc3-c3cncc(N)n3)cc2F)cn1` [Example 842, 5-[2′-(6-Aminopyrazin-2-yl)-3-fluorobiphenyl-4-yl]pyrazin-2-amine], the affinity at human FLAP (wild type FLAP, HTRF format), expressed as Ki, was 5.3 nM. Moreover, the IC50 in assay [1] (setting [4]) came out at 61 nM.
On human FLAP (wild type FLAP, HTRF format), `Nc1cnc(-c2ccc(-c3cccnc3OC3CCOCC3)cc2F)cn1` [Example 653, 5-{2-Fluoro-4-[2-(tetrahydro-2H-pyran-4-yloxy)pyridin-3-yl]phenyl}pyrazin-2-amine] registered a Ki of 17.3 nM. For the same compound, in assay [1] (setting [4]), the IC50 came out at 527 nM.
The compound `Nc1ncc(-c2ccc(-c3ccccc3Sc3cnccn3)cc2F)cn1` [Example 333, 5-[3-Fluoro-2′-(pyrazin-2-ylsulfanyl)biphenyl-4-yl]pyrimidin-2-amine hydrochloride] returned a Ki at human FLAP (setting [2]) of 45 nM. Moreover, the IC50 in assay [1] (setting [3]) is 671 nM.
The compound `N#CCCN(C1CC1)S(=O)(=O)c1ccccc1-c1ccc(-c2cnc(N)nc2)c(F)c1` [Example 249, 4′-(2-Aminopyrimidin-5-yl)-N-(2-cyanoethyl)-N-cyclopropyl-3′-fluorobiphenyl-2-sulfonamide] had a Ki on human FLAP (setting [2]) of 59 nM. The IC50 in assay [1] (setting [3]) is 94 nM.
For `CC(C)N(CCO)S(=O)(=O)c1ccccc1-c1ccc(-c2cnc(N)nc2)c(F)c1` [Example 261, 4′-(2-Aminopyrimidin-5-yl)-3′-fluoro-N-(2-hydroxyethyl)-N-(1-methylethyl)biphenyl-2-sulfonamide], on human FLAP (setting [2]), the affinity corresponds to a Ki of 6 nM. Further, the IC50 in assay [1] (setting [3]) was 75 nM.
Take `Nc1ncc(-c2ccc(-c3cccnc3S(=O)(=O)C3CCCC3)cc2F)cn1` [Example 809, 5-(4-(2-(Cyclopentylsulfonyl)pyridin-3-yl)-2-fluorophenyl)pyrimidine-2-amine hydrochloride]: at human FLAP (wild type FLAP, HTRF format), the Ki came to 3.8 nM. For the same compound, the IC50 in assay [1] (setting [4]) was found to be 37.7 nM.
`Nc1cnc(-c2ccc(-c3ccccc3CSc3ccc(N)nn3)cc2F)cn1` [Example 240, 6-(((4′-(5-Aminopyrazin-2-yl)-3′-fluoro-[1,1′-biphenyl]-2-yl)methyl)thio)pyridazin-3-amine hydrochloride] had a Ki at human FLAP (setting [2]) of 2 nM. For the same compound, the IC50 in assay [1] (setting [3]) was found to be 21 nM.
For the compound `Nc1ncc(-c2ccc(-c3ccccc3-c3cnccn3)cc2F)cn1` [Example 839, 5-(3-Fluoro-2′-pyrazin-2-ylbiphenyl-4-yl)pyrimidin-2-amine], the affinity at human FLAP (wild type FLAP, HTRF format) corresponds to a Ki of 830 nM. For the same compound, in assay [1] (setting [4]), the concentration for half-maximal inhibition (IC50) turned out to be 2790 nM.
In turn, `Nc1cnc(-c2ccc(-c3ccccc3S(=O)(=O)N3CCC[C@H](N)C3)cc2F)cn1` [Example 137, (S)-5-{2′-[(3-Aminopiperidin-1-yl)sulfonyl]-3-fluorobiphenyl-4-yl}pyrazin-2-amine] showed a Ki on human FLAP (setting [2]) of 3 nM. The IC50 in assay [1] (setting [3]) was 44 nM.
`Nc1cnc(-c2ccc(-c3ccccc3S(=O)(=O)N[C@@H]3CCCC[C@H]3O)cc2F)cn1` [Example 85, 4′-(5-Aminopyrazin-2-yl)-3′-fluoro-N-[(1R,2R)-2-hydroxycyclohexyl]biphenyl-2-sulfonamide] displayed a Ki on human FLAP (setting [2]) of 2 nM. In addition, the IC50 in assay [1] (setting [3]) came to 20 nM.
At human FLAP (setting [2]), `CC(CO)NS(=O)(=O)c1ccccc1-c1ccc(-c2cnc3[nH]ccc3n2)c(F)c1` (stereo in doubt) [Example 378, 3′-Fluoro-N-[(1R)-2-hydroxy-1-methylethyl]-4′-(5H-pyrrolo[2,3-b]pyrazin-2-yl)biphenyl-2-sulfonamide] registered a Ki of 1 nM. The IC50 in assay [1] (setting [3]) came to 16 nM.
In the case of `Cn1cc(-c2ccccc2-c2ccc(-c3cnc(N)cn3)c(F)c2)cn1` [Example 847, 5-[3-Fluoro-2′-(1-methyl-1H-pyrazol-4-yl)biphenyl-4-yl]pyrazin-2-amine], the affinity on human FLAP (wild type FLAP, HTRF format), expressed as Ki, was 8.1 nM. Besides, the IC50 in assay [1] (setting [4]) stood at 99.1 nM.
Turning to `CC(C)(C)NS(=O)(=O)c1ccccc1-c1ccc(-c2cnc3cc[nH]c3c2)c(F)c1` [Example 425, N-tert-Butyl-3′-fluoro-4′-(1H-pyrrolo[3,2-b]pyridin-6-yl)biphenyl-2-sulfonamide], the Ki at human FLAP (wild type FLAP, HTRF format) was 2 nM. Moreover, the IC50 in assay [1] (setting [4]) stood at 111 nM.
`CC(C)(C)NS(=O)(=O)c1ccccc1-c1ccc(-c2ccc3[nH]cnc3c2)c(F)c1` [Example 422, 4′-(1H-Benzimidazol-5-yl)-N-tert-butyl-3′-fluorobiphenyl-2-sulfonamide] had a Ki on human FLAP (wild type FLAP, HTRF format) of 3 nM. Moreover, in assay [1] (setting [4]), the IC50 amounted to 146 nM.
Compound `Nc1ncc(-c2ccc(-c3ccccc3Sc3ccncn3)cc2F)cn1` [Example 214, 5-[3-Fluoro-2′-(pyrimidin-4-ylsulfanyl)biphenyl-4-yl]pyrimidin-2-amine formate salt] showed a Ki on human FLAP (setting [2]) of 12 nM. Besides, the IC50 in assay [1] (setting [3]) was determined as 138 nM.
At human FLAP (setting [2]), `CNS(=O)(=O)c1cc(C(F)(F)F)ccc1-c1ccc(-c2cnc(N)nc2)c(F)c1` [Example 325, 4′-(2-Aminopyrimidin-5-yl)-3′-fluoro-N-methyl-4-(trifluoromethyl)biphenyl-2-sulfonamide] returned a Ki of 4 nM. In assay [1] (setting [3]), the IC50 was found to be 91 nM.
At human FLAP (wild type FLAP, HTRF format), `C[C@@H](CO)NC(=O)c1cc(C(F)(F)F)ccc1-c1ccc(-c2cnc(N)cn2)c(F)c1` [Example 786, 2-[4-(5-Aminopyrazin-2-yl)-3-fluoro-phenyl]-N-[(1S)-2-hydroxy-1-methyl-ethyl]-5-(trifluoromethyl)benzamide] yielded a Ki of 60.7 nM. The IC50 in assay [1] (setting [4]) worked out at 105 nM.
The matching figures for `COc1ccccc1-c1ccc(-c2cnc(N)cn2)c(F)c1` [Example 473, 5-(3-Fluoro-2′-methoxybiphenyl-4-yl)pyrazin-2-amine]: 113 nM and 1410 nM.
For `C[C@H](CO)NC(=O)c1cc(C(F)(F)F)ccc1-c1ccc(-c2cnc(N)cn2)c(F)c1` [Example 785, 2-[4-(5-Aminopyrazin-2-yl)-3-fluoro-phenyl]-N-[(1R)-2-hydroxy-1-methyl-ethyl]-5-(trifluoromethyl)benzamide], the affinity on human FLAP (wild type FLAP, HTRF format) corresponds to a Ki of 8.5 nM. Further, in assay [1] (setting [4]), the IC50 turned out to be 57.5 nM.
In the case of `NC(=O)NCCNS(=O)(=O)c1ccccc1-c1ccc(-c2cnc(N)cn2)c(F)c1` [Example 157, 4′-(5-Aminopyrazin-2-yl)N—N-[2-(carbamoylamino)ethyl]-3′-fluorobiphenyl-2-sulfonamide], on human FLAP (setting [2]), the affinity, expressed as Ki, was 10 nM. Besides, the 50% inhibitory concentration (IC50) in assay [1] (setting [3]) stood at 1840 nM.
In turn, `Nc1cnc(-c2ccc(-c3ccccc3S(=O)(=O)N[C@@H]3CCCC[C@@H]3O)cc2F)cn1` [Example 87, 4′-(5-Aminopyrazin-2-yl)-3′-fluoro-N-[(1R,2S)-2-hydroxycyclohexyl]biphenyl-2-sulfonamide] showed an inhibition constant (Ki) on human FLAP (setting [2]) of 3 nM. For the same compound, the IC50 in assay [1] (setting [3]) came to 75 nM.
Turning to `Nc1ncc(-c2ccc(-c3ccccc3S(=O)(=O)N3CC4(COC4)C3)cc2F)cn1` [Example 312, 5-(2′-(2-Oxa-6-azaspiro[3.3]heptan-6-ylsulfonyl)-3-fluoro-[1,1′-biphenyl]-4-yl)pyrimidin-2-amine], the Ki on human FLAP (setting [2]) turned out to be 262 nM. In addition, the IC50 in assay [1] (setting [3]) was 376 nM.
The compound `Nc1cncc(Sc2ccccc2-c2ccc(-c3cnc(N)nc3)c(F)c2)n1` [Example 336, 5-{2′-[(6-Aminopyrazin-2-yl)sulfanyl]-3-fluorobiphenyl-4-yl}pyrimidin-2-amine formate salt] returned a Ki on human FLAP (setting [2]) of 4 nM. Also, the IC50 in assay [1] (setting [3]) was found to be 65 nM.
`C[C@@H](NS(=O)(=O)c1ccccc1-c1ccc(-c2cnc(N)cn2)c(F)c1)C(F)(F)F` [Example 127, (R)-4′-(5-Aminopyrazin-2-yl)-3′-fluoro-N-(2,2,2-trifluoro-1-methylethyl)biphenyl-2-sulfonamide] displayed a Ki on human FLAP (setting [2]) of 2 nM. The half-inhibitory concentration (IC50) in assay [1] (human whole blood diluted 1:1 in RPMI, A23187-stimulated LTB4) is 35 nM.
On to `N#CC1(S(=O)(=O)c2ccccc2-c2ccc(-c3cnc(N)cn3)c(F)c2)CCCC1` [Example 730, 1-{[4′-(5-Aminopyrazin-2-yl)-3′-fluorobiphenyl-2-yl]sulfonyl}cyclopentanecarbonitrile], for which the Ki at human FLAP (wild type FLAP, HTRF format) was 6.7 nM. The IC50 in assay [1] (setting [4]) was 136 nM.
Turning to `Nc1ncc(-c2ccc(-c3cccnc3S(=O)(=O)C3CCCCC3)cc2F)cn1` [Example 807, 5-(4-(2-(Cyclohexlsulfonyl)pyridin-3-yl)-2-fluorophenyl)pyrimidin-2-amine hydrochloride], the inhibition constant Ki on human FLAP (read-out: FLAP Binding wild type HTRF Ki) came to 5.8 nM. For the same compound, the concentration for half-maximal inhibition (IC50) in assay [1] (setting [4]) was 72.2 nM.
